The record followed here is PubChem BioAssay (NCI).

Several values for one entry are separate records, joined by “and”; a condition that tells them apart may be missing. Equal entries are not always repeated.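 Cells were grown in 96-well plates and exposed to each compound for 48 hours at five concentrations; endpoints were interpolated linearly between bracketing concentrations, or set to the highest concentration if not reached. Here, GI50 denotes the concentration required for 50% inhibition of growth. At the TGI there is no net growth.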 Where a SMILES comes first, the peptide text is derived from it. The star is where a group is joined. Trt = c1ccc(C(c2ccccc2)(c2ccccc2)*)cc1; Cbz = O=C(OCc1ccccc1)* Some results are limits rather than exact numbers.

Among the test systems are NCI/ADR-RES ovarian; KM12 colon; MDA-MB-435; COLO 205 colon; PC-3 prostate; SF-295 CNS; SK-MEL-5 melanoma.
What all share (assay): NCI-60 cell line screen, 48 h

As for `Cc1cc2nc(-c3c(F)cccc3Cl)n(Cc3c(F)cccc3Cl)c2cc1C`, the GI50 in the test on NCI/ADR-RES ovarian was 12.5 µM; in the test on KM12 colon it was 10.5 µM; in the test with MDA-MB-435, 7.33 µM; with COLO 205 colon it was 11.6 µM; with PC-3 prostate it was 3.44 µM; with SF-295 CNS, 6.92 µM. Further, the GI50 in the test on SK-MEL-5 melanoma was 11.2 µM. Also, the TGI with NCI/ADR-RES ovarian was 26.3 µM; with KM12 colon, 37.7 µM; in the test with MDA-MB-435 it was 22.7 µM; in the test with COLO 205 colon it was 26.3 µM; in the test with PC-3 prostate, 12.6 µM; in the test on SF-295 CNS, 33.3 µM. Besides, in the test on SK-MEL-5 melanoma, the TGI was 23.6 µM.
With `NC(=O)c1ccc(N(C(N)=O)c2c(F)cccc2F)nc1-c1ccc(F)cc1F`, the GI50 in the test with NCI/ADR-RES ovarian, with KM12 colon, in the test with MDA-MB-435, with COLO 205 colon, in the test with PC-3 prostate and in the test on SF-295 CNS was over 100 µM in each case. In the test on SK-MEL-5 melanoma, the GI50 was over 100 µM. Further, the TGI in the test on NCI/ADR-RES ovarian, in the test with KM12 colon, in the test on MDA-MB-435, with COLO 205 colon, with PC-3 prostate and in the test on SF-295 CNS was over 100 µM throughout. Also, the TGI in the test with SK-MEL-5 melanoma is over 100 µM.
With `Cc1c(Cl)c(C)c(Cc2c(C)c(Cl)c(C)c(Cl)c2O)c(O)c1Cl`, the GI50 in the test with NCI/ADR-RES ovarian is 3.09 µM; with KM12 colon, 3.34 µM; in the test with MDA-MB-435, 3.13 µM; in the test on COLO 205 colon, 3.04 µM; in the test with PC-3 prostate, 1.99 µM; in the test with SF-295 CNS, 2.05 µM. The GI50 in the test on SK-MEL-5 melanoma was 1.28 µM. For the same molecule, the TGI in the test on NCI/ADR-RES ovarian turned out to be 10.2 µM; with KM12 colon, 11.4 µM; in the test on MDA-MB-435, 11.1 µM; in the test on COLO 205 colon it was 9.24 µM; in the test with PC-3 prostate, 11.8 µM; in the test on SF-295 CNS, 5.08 µM. Also, the TGI with SK-MEL-5 melanoma is 3.33 µM.
As to `COc1cc(-c2cc(=O)c3c(O)c(OC)c(OC)c(OC)c3o2)cc(OC)c1OC`, the TGI in the test on NCI/ADR-RES ovarian, in the test on KM12 colon, with MDA-MB-435, in the test with COLO 205 colon, in the test on PC-3 prostate and in the test on SF-295 CNS was over 100 µM throughout. This molecule also gave a TGI in the test on SK-MEL-5 melanoma of over 100 µM.
As for `CCCCCCCCCCCCCCCCOCC(O)CO` (configuration not stated), the TGI in the test with NCI/ADR-RES ovarian is 34.7 µM; in the test with KM12 colon, 32.1 µM; in the test on MDA-MB-435, 33.4 µM; in the test on COLO 205 colon, 50.8 µM; with PC-3 prostate it was 37.8 µM; in the test on SF-295 CNS, 30.3 µM. The TGI with SK-MEL-5 melanoma amounted to 71.9 µM.
As to `COC(=O)C(CSC(c1ccccc1)(c1ccccc1)c1ccccc1)NC(=O)C(CC(N)=O)NC(=O)OCc1ccccc1` (stereo not drawn) (Cbz-Asn-Cys(Trt)-OMe; configuration not given here), the GI50 in the test with NCI/ADR-RES ovarian was 4.48 µM; with KM12 colon it was 4.62 µM; in the test with MDA-MB-435 it was 2.13 µM; with COLO 205 colon it was 1.64 µM; in the test with PC-3 prostate it was 3.57 µM; with SF-295 CNS, 2.96 µM. The GI50 in the test on SK-MEL-5 melanoma is 3.23 µM. The TGI was found to be 20.8 µM in the test on NCI/ADR-RES ovarian; 17 µM with KM12 colon; 5.2 µM in the test with MDA-MB-435; 3.4 µM in the test on COLO 205 colon; 17.2 µM in the test on PC-3 prostate; 13.9 µM with SF-295 CNS. The molecule also registered a TGI in the test with SK-MEL-5 melanoma of 14.4 µM.
Regarding `Cc1c(Cl)cccc1NC(=O)c1sc2nc3c(cc2c1N)CCCC3`, the GI50 with NCI/ADR-RES ovarian is 0.396 µM; in the test on KM12 colon it was 0.482 µM; in the test on MDA-MB-435, 0.226 µM; with COLO 205 colon, 0.719 µM; with PC-3 prostate it was 1.11 µM; with SF-295 CNS it was 0.346 µM. Besides, the GI50 in the test with SK-MEL-5 melanoma is 0.513 µM. Also, the TGI with NCI/ADR-RES ovarian was over 100 µM; with KM12 colon, over 100 µM; with MDA-MB-435, 0.775 µM; in the test with COLO 205 colon it was over 100 µM; with PC-3 prostate, over 100 µM; with SF-295 CNS, over 100 µM. In the test with SK-MEL-5 melanoma, this molecule came in with a TGI of over 100 µM.
For `COc1cc2c(cc1OCCCOc1ccc(-c3nc4ccc(N5CCN(C)CC5)cc4[nH]3)cc1)N=C[C@@H]1CCCN1C2=O`, the GI50 in the test with NCI/ADR-RES ovarian is under 0.017 µM; with KM12 colon, under 0.01 µM; in the test with MDA-MB-435, under 0.01 µM; in the test on COLO 205 colon it was under 0.01 µM; with PC-3 prostate, under 0.01 µM; in the test with SF-295 CNS, under 0.01 µM. In addition, the GI50 in the test on SK-MEL-5 melanoma is under 0.01 µM. Besides, the TGI in the test on NCI/ADR-RES ovarian is 0.161 µM; in the test on MDA-MB-435 it was under 0.01 µM; in the test on COLO 205 colon, over 100 µM; with PC-3 prostate, under 0.01 µM; in the test with SF-295 CNS it was under 0.0359 µM; with SK-MEL-5 melanoma, under 0.01 µM.
Regarding `Cc1ccc(-c2n[nH]c(=O)c3noc(-c4ccc(C)cc4)c23)cc1`, the GI50 in the test with NCI/ADR-RES ovarian is 0.623 µM; in the test on KM12 colon it was 0.713 µM; with MDA-MB-435, 0.235 µM; in the test with COLO 205 colon, 0.752 µM; in the test with PC-3 prostate it was 2.07 µM; in the test with SK-MEL-5 melanoma, 0.97 µM. Moreover, the TGI with NCI/ADR-RES ovarian was over 100 µM; in the test on KM12 colon it was over 100 µM; in the test with MDA-MB-435, 0.651 µM; in the test with COLO 205 colon, 5.05 µM; with PC-3 prostate it was over 100 µM; in the test on SK-MEL-5 melanoma, over 100 µM.
In the case of `Nc1nc(N)c2c(n1)NC(c1sc(Cl)nc1Cl)CC(c1ccc3c(c1)OCO3)=N2` (configuration not stated), the GI50 in the test on NCI/ADR-RES ovarian is 3.55 µM; in the test on KM12 colon, 3.93 µM; in the test with MDA-MB-435, 0.353 µM; with COLO 205 colon it was 3.48 µM; with PC-3 prostate it was 5.15 µM; with SF-295 CNS, 2.21 µM. The GI50 in the test on SK-MEL-5 melanoma is 3.43 µM. Further, the TGI in the test on NCI/ADR-RES ovarian came out at 25.3 µM; with KM12 colon, 21.4 µM; in the test on MDA-MB-435, 11.6 µM; with COLO 205 colon, 12.7 µM; with PC-3 prostate, 32.4 µM; in the test on SF-295 CNS, 12.3 µM. The molecule also had a TGI in the test on SK-MEL-5 melanoma of 13.3 µM.
For the molecule `Cn1cc(-c2nc(N[C@@H]3CCCC[C@@H]3N)c(F)c3c2C(=O)NC3)cn1`, the GI50 was over 100 µM with NCI/ADR-RES ovarian; 0.458 µM and 0.452 µM in the test with KM12 colon; 5.64 µM and 7.4 µM in the test on MDA-MB-435; 1.41 µM and 1.63 µM with COLO 205 colon; 9.43 µM and 13.3 µM with PC-3 prostate; 3.95 µM and 3.5 µM in the test with SF-295 CNS. For the same molecule, the GI50 in the test with SK-MEL-5 melanoma was 29.2 µM and 22.6 µM. Moreover, the TGI in the test on NCI/ADR-RES ovarian is over 100 µM; in the test with KM12 colon, over 100 µM; with MDA-MB-435, over 100 µM; in the test with COLO 205 colon, 3.99 µM and 4.13 µM; with PC-3 prostate it was over 100 µM; in the test on SF-295 CNS it was over 77.2 µM. Also, the TGI with SK-MEL-5 melanoma was over 100 µM.
